Experimental data published in US8455534B2, “Estrogen receptor modulators and uses thereof” (Aragon Pharmaceuticals, Inc., priority 2010, dated 2013).

Tests used:
[1] = biological target: T1, ER-α (Homo sapiens, UniProt P03372); assay: Breast Cancer Cell ER-α In Cell Western Assay (SP1); format: cell-based; conditions: MCF-7 cells, SP1 antibody, 4 or 24 hr post compound addition; for Emax: MCF7, read-out: ER-α In Cell Western Assay (SP1) Max Response; for DC50: read-out: ER-α In Cell Western Assay (SP1) IC50
T1 sequence (P03372 1-595): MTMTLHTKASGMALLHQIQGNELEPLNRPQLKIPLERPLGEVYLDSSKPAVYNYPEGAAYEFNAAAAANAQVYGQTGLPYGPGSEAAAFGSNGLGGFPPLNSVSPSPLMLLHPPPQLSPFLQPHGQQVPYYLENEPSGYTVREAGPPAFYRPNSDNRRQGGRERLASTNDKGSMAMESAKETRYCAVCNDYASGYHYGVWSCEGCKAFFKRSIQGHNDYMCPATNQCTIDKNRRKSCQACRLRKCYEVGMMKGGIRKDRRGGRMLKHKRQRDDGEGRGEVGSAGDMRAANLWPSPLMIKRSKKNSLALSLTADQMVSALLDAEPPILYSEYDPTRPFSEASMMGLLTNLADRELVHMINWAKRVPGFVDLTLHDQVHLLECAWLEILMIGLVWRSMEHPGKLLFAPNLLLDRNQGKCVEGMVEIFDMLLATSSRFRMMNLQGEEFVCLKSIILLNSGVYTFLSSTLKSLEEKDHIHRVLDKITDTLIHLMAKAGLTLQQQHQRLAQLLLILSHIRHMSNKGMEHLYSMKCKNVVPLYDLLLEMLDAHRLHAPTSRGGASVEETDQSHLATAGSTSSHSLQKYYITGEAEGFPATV
Method in brief: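 ER-α protein levels measured by in-cell western with SP1 antibody, ratioed to DRAQ5 DNA signal and given as percent of untreated controls. Compounds added at 0.3–0.000003 μM final (eleven semilog points) to adherent MCF-7 cells in stripped serum; exposure 4 or 24 h before fixation.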

[2] = test system: MCF-7 cells; assay: Breast Cancer Cell Viability Assay (MCF-7, CellTiter-Glo); format: cell-based; conditions: 5 days' compound exposure; for IC50: Homo sapiens, MCF7, 120 h
Method in brief: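 Eleven-point semilog compound series, final 0.3-0.000003 μM, added to overnight-adhered MCF-7 cells (320/well; RPMI, 10% FBS, 20 mM HEPES) for 5 days. Viability read by CellTiter-Glo luminescence, background from medium without cells subtracted, expressed relative to untreated cells.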

Compound	Emax [1] [%]	MCF7 Viability Assay Max Response [2]	IC50 [2] [nM]	DC50 [1] [nM]
CC/C(=C(/c1ccc(/C=C/C(=O)O)cc1)c1ccc2[nH]ncc2c1)c1ccccc1S(C)(=O)=O [Compound 98, (E)-3-(4-((E)-1-(1H-Indazol-5-yl)-2-(2-(methylsulfonyl)phenyl)but-1-en-1-yl)phenyl)acrylic acid]	≥ 40	++ (++ = a single % value ≧ 40%)	≤ 100	–
CC/C(=C(/c1ccc(/C=C/C(=O)O)cc1)c1ccc2[nH]ncc2c1)c1ccc(F)cc1F [Compound 22, (E)-3-(4-((E)-2-(2,4-Difluorophenyl)-1-(1H-indazol-5-yl)but-1-en-1-yl)phenyl)acrylic acid]	≥ 40	++ (++ = a single % value ≧ 40%)	≤ 100	≤ 100
O=C(O)/C=C/c1ccc(/C(=C(\c2ccccc2)C2CC2)c2ccc3[nH]ncc3c2F)cc1 [Compound 75, (E)-3-(4-((E)-2-Cyclopropyl-1-(4-fluoro-1H-indazol-5-yl)-2-phenylvinyl)phenyl)acrylic acid]	≥ 40	++ (++ = a single % value ≧ 40%)	≤ 100	≤ 100
O=C(O)/C=C/c1ccc(/C(=C(/CCCl)c2ccccc2)c2ccc3[nH]ncc3c2)cc1 [Compound 20, (E)-3-(4-((E)-4-Chloro-1-(1H-indazol-5-yl)-2-phenylbut-1-en-1-yl)phenyl)acrylic acid]	≥ 40	++ (++ = a single % value ≧ 40%)	≤ 100	≤ 100
CC(C)C/C(=C(/c1ccc(/C=C/C(=O)O)cc1)c1ccc2[nH]ncc2c1)c1ccccc1 [Compound 51, (E)-3-(4-((E)-1-(1H-Indazol-5-yl)-4-methyl-2-phenylpent-1-en-1-yl)phenyl)acrylic acid]	≥ 40	++ (++ = a single % value ≧ 40%)	≤ 100	≤ 100
CC/C(=C(/c1ccc(/C=C/C(=O)O)cc1)c1cc2cn[nH]c2cc1F)c1ccccc1 [Compound 58, (E)-3-(4-((E)-1-(6-Fluoro-1H-indazol-5-yl)-2-phenylbut-1-en-1-yl)phenyl)acrylic acid]	≥ 40	++ (++ = a single % value ≧ 40%)	≤ 100	≤ 100
O=C(O)/C=C/c1ccc(/C(=C(/CCF)c2ccc(F)cc2Cl)c2ccc3[nH]ncc3c2)cc1 [Compound 120, (E)-3-(4-((E)-2-(2-Chloro-4-fluorophenyl)-4-fluoro-1-(1H-indazol-5-yl)but-1-en-1-yl)phenyl)acrylic acid]	≥ 40	++ (++ = a single % value ≧ 40%)	≤ 100	≤ 100
CC/C(=C(/c1ccc(/C=C/C(=O)O)cc1)c1ccc2c(cnn2C)c1)c1ccc(F)cc1Cl [Compound 147, (E)-3-(4-((E)-2-(2-Chloro-4-fluorophenyl)-1-(1-methyl-1H-indazol-5-yl)but-1-en-1-yl)phenyl)acrylic acid]	≥ 40	++ (++ = a single % value ≧ 40%)	≤ 100	≤ 100
CC/C(=C(/c1ccc(/C=C/C(=O)O)cc1)c1ccc2[nH]ncc2c1)c1cccc(F)c1F [Compound 31, (E)-3-(4-((E)-2-(2,3-Difluorophenyl)-1-(1H-indazol-5-yl)but-1-en-1-yl)phenyl)acrylic acid]	≥ 40	++ (++ = a single % value ≧ 40%)	≤ 100	≤ 100
O=C(O)/C=C/c1ccc(/C(=C(/CCCl)c2ccc(F)cc2Cl)c2ccc3[nH]ncc3c2)cc1 [Compound 67, (E)-3-(4-((E)-4-Chloro-2-(2-chloro-4-fluorophenyl)-1-(1H-indazol-5-yl)but-1-en-1-yl)phenyl)acrylic acid]	≥ 40	++ (++ = a single % value ≧ 40%)	≤ 100	≤ 100
O=C(O)/C=C/c1ccc(/C(=C(\c2ccccc2)C(F)F)c2ccc3[nH]ncc3c2)cc1 [Compound 64, (E)-3-(4-((Z)-3,3-Difluoro-1-(1H-indazol-5-yl)-2-phenylprop-1-en-1-yl)phenyl)acrylic acid]	≥ 40	++ (++ = a single % value ≧ 40%)	≤ 100	≤ 100
CC/C(=C(/c1ccc(/C=C/C(=O)O)cc1)c1ccc2[nH]ncc2c1)c1ccccc1CC [Compound 18, (E)-3-(4-((E)-2-(2-Ethylphenyl)-1-(1H-indazol-5-yl)but-1-en-1-yl)phenyl)acrylic acid]	≥ 40	++ (++ = a single % value ≧ 40%)	≤ 100	≤ 100
CC/C(=C(/c1ccc(/C=C/C(=O)O)cc1)c1ccc2[nH]ncc2c1)c1ccc(F)cc1C [Compound 25, (E)-3-(4-((E)-2-(4-Fluoro-2-methylphenyl)-1-(1H-indazol-5-yl)but-1-en-1-yl)phenyl)acrylic acid]	≥ 40	++ (++ = a single % value ≧ 40%)	≤ 100	≤ 100
COCCC/C(=C(/c1ccc(/C=C/C(=O)O)cc1)c1ccc2[nH]ncc2c1)c1ccccc1 [Compound 80, (E)-3-(4-((E)-1-(1H-Indazol-5-yl)-5-methoxy-2-phenylpent-1-en-1-yl)phenyl)acrylic acid]	≥ 40	++ (++ = a single % value ≧ 40%)	> 100	≤ 100
CC/C(=C(/c1ccc(/C=C/C(=O)O)cc1)c1ccc2[nH]ncc2c1)c1cc(F)ccc1Cl [Compound 33, (E)-3-(4-((E)-2-(2-Chloro-5-fluorophenyl)-1-(1H-indazol-5-yl)but-1-en-1-yl)phenyl)acrylic acid]	≥ 40	++ (++ = a single % value ≧ 40%)	≤ 100	≤ 100
CC/C(=C(/c1ccc(/C=C/C(=O)O)cc1)c1ccc2[nH]ncc2c1)c1c(Cl)cccc1Cl [Compound 27, (E)-3-(4-((E)-2-(2,6-Dichlorophenyl)-1-(1H-indazol-5-yl)but-1-en-1-yl)phenyl)acrylic acid]	≥ 40	++ (++ = a single % value ≧ 40%)	≤ 100	≤ 100
O=C(O)/C=C/c1ccc(/C(=C(/CCCl)c2ccccc2)c2ccc3[nH]ncc3c2F)cc1 [Compound 76, (E)-3-(4-((E)-4-Chloro-1-(4-fluoro-1H-indazol-5-yl)-2-phenylbut-1-en-1-yl)phenyl)acrylic acid]	≥ 40	++ (++ = a single % value ≧ 40%)	≤ 100	≤ 100
CC/C(=C(/c1ccc(/C=C/C(=O)O)cc1)c1ccc2[nH]ncc2c1)c1cccc(S(C)(=O)=O)c1 [Compound 133, (E)-3-(4-((E)-1-(1H-Indazol-5-yl)-2-(3-(methylsulfonyl)phenyl)but-1-en-1-yl)phenyl)acrylic acid]	≥ 40	+ (+ = a single % value < 40%)	> 100	> 100
CC/C(=C(/c1ccc(/C=C/C(=O)O)cc1)c1ccc2[nH]ncc2c1)c1cccc(F)c1 [Compound 17, (E)-3-(4-((E)-2-(3-Fluorophenyl)-1-(1H-indazol-5-yl)but-1-en-1-yl)phenyl)acrylic acid]	≥ 40	++ (++ = a single % value ≧ 40%)	≤ 100	≤ 100
COCCCC/C(=C(/c1ccc(/C=C/C(=O)O)cc1)c1ccc2[nH]ncc2c1)c1ccccc1 [Compound 81, (E)-3-(4-((E)-1-(1H-Indazol-5-yl)-6-methoxy-2-phenylhex-1-en-1-yl)phenyl)acrylic acid]	≥ 40	++ (++ = a single % value ≧ 40%)	> 100	≤ 100
O=C(O)/C=C/c1ccc(/C(=C(\c2ccc(F)cc2Cl)C2CCC2)c2ccc3[nH]ncc3c2)cc1 [Compound 85, (E)-3-(4-((E)-2-(2-Chloro-4-fluorophenyl)-2-cyclobutyl-1-(1H-indazol-5-yl)vinyl)phenyl)acrylic acid]	≥ 40	++ (++ = a single % value ≧ 40%)	≤ 100	≤ 100
CC/C(=C(/c1ccc(/C=C/C(=O)O)c(F)c1)c1ccc2[nH]ncc2c1)c1ccccc1 [Compound 106, (E)-3-(4-((Z)-1-(1H-Indazol-5-yl)-2-phenylbut-1-en-1-yl)-2-fluorophenyl)acrylic acid]	≥ 40	++ (++ = a single % value ≧ 40%)	≤ 100	≤ 100
